# Source: PubChem BioAssay (NCI)
#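 Cells were grown in 96-well plates and exposed to each compound for 48 hours at five concentrations; endpoints were interpolated linearly between bracketing concentrations, or set to the highest concentration if not reached. The concentration for full growth arrest is given as TGI.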
# What was measured:
# Experiment in all cases: NCI-60 cell line screen, 48 h
# NCI-H522 lung = test system: NCI-H522 lung
# SN12C renal = test system: SN12C renal
# SF-268 CNS = test system: SF-268 CNS
# OVCAR-5 ovarian = test system: OVCAR-5 ovarian
# NCI-H226 lung = test system: NCI-H226 lung
# TK-10 renal = test system: TK-10 renal
# 786-0 renal = test system: 786-0 renal
# DU-145 prostate = test system: DU-145 prostate
# T-47D breast = test system: T-47D breast
# NCI-H23 lung = test system: NCI-H23 lung
# HOP-62 NSCLC = test system: HOP-62 NSCLC
# MDA-MB-231 breast = test system: MDA-MB-231 breast
# U251 CNS = test system: U251 CNS
# SK-MEL-28 melanoma = test system: SK-MEL-28 melanoma
# HT29 colon = test system: HT29 colon
# RPMI-8226 leukemia = test system: RPMI-8226 leukemia
# CCRF-CEM leukemia = test system: CCRF-CEM leukemia
# LOX IMVI melanoma = test system: LOX IMVI melanoma
# SNB-19 CNS = test system: SNB-19 CNS
# PC-3 prostate = test system: PC-3 prostate
# SF-539 CNS = test system: SF-539 CNS
# MDA-MB-435 = test system: MDA-MB-435
# SW-620 colon = test system: SW-620 colon
# M14 melanoma = test system: M14 melanoma
# SK-MEL-2 melanoma = test system: SK-MEL-2 melanoma
# A549 NSCLC = test system: A549 NSCLC
# MCF7 breast = test system: MCF7 breast
# IGROV1 ovarian = test system: IGROV1 ovarian
# EKVX NSCLC = test system: EKVX NSCLC
# SK-MEL-5 melanoma = test system: SK-MEL-5 melanoma
# OVCAR-3 ovarian = test system: OVCAR-3 ovarian
# MDA-N = test system: MDA-N
# SF-295 CNS = test system: SF-295 CNS
# BT-549 breast = test system: BT-549 breast
# SK-OV-3 ovarian = test system: SK-OV-3 ovarian
# CAKI-1 renal = test system: CAKI-1 renal
# HCC-2998 colon = test system: HCC-2998 colon
# HCT-15 colon = test system: HCT-15 colon
# HS 578T breast = test system: HS 578T breast
# COLO 205 colon = test system: COLO 205 colon
# OVCAR-8 ovarian = test system: OVCAR-8 ovarian
# MOLT-4 leukemia = test system: MOLT-4 leukemia
# HL-60(TB) leukemia = test system: HL-60(TB) leukemia
# KM12 colon = test system: KM12 colon
# UACC-257 melanoma = test system: UACC-257 melanoma
# UACC-62 melanoma = test system: UACC-62 melanoma
# SNB-75 CNS = test system: SNB-75 CNS
# OVCAR-4 ovarian = test system: OVCAR-4 ovarian
# ACHN renal = test system: ACHN renal
# NCI-H460 lung = test system: NCI-H460 lung
# NCI/ADR-RES ovarian = test system: NCI/ADR-RES ovarian
# HCT-116 colon = test system: HCT-116 colon
# MALME-3M melanoma = test system: MALME-3M melanoma
# K-562 leukemia = test system: K-562 leukemia
# RXF 393 renal = test system: RXF 393 renal
# A498 renal = test system: A498 renal
# UO-31 renal = test system: UO-31 renal
# HOP-92 NSCLC = test system: HOP-92 NSCLC
smiles,measurement,setting,value
Cc1cc(S(=O)(=O)Nc2nncn2-c2ccc(Cl)cc2)c(S)cc1Cl,TGI,NCI-H522 lung,> 10 µM
same,TGI,SN12C renal,> 10 µM
same,TGI,SF-268 CNS,> 10 µM
same,TGI,OVCAR-5 ovarian,> 10 µM
same,TGI,NCI-H226 lung,> 10 µM
same,TGI,TK-10 renal,> 10 µM
same,TGI,786-0 renal,> 10 µM
same,TGI,DU-145 prostate,> 10 µM
same,TGI,T-47D breast,> 10 µM
same,TGI,NCI-H23 lung,> 10 µM
same,TGI,HOP-62 NSCLC,> 10 µM
same,TGI,MDA-MB-231 breast,> 10 µM
same,TGI,U251 CNS,> 10 µM
same,TGI,SK-MEL-28 melanoma,> 10 µM
same,TGI,HT29 colon,> 10 µM
same,TGI,RPMI-8226 leukemia,> 10 µM
same,TGI,CCRF-CEM leukemia,> 10 µM
same,TGI,LOX IMVI melanoma,> 10 µM
same,TGI,SNB-19 CNS,> 10 µM
same,TGI,PC-3 prostate,> 10 µM
same,TGI,SF-539 CNS,> 10 µM
same,TGI,MDA-MB-435,> 10 µM
same,TGI,SW-620 colon,> 10 µM
same,TGI,M14 melanoma,> 10 µM
same,TGI,SK-MEL-2 melanoma,> 10 µM
same,TGI,A549 NSCLC,> 10 µM
same,TGI,MCF7 breast,> 10 µM
same,TGI,IGROV1 ovarian,> 10 µM
same,TGI,EKVX NSCLC,> 10 µM
same,TGI,SK-MEL-5 melanoma,> 10 µM
same,TGI,OVCAR-3 ovarian,> 10 µM
same,TGI,MDA-N,> 10 µM
same,TGI,SF-295 CNS,> 10 µM
same,TGI,BT-549 breast,> 10 µM
same,TGI,SK-OV-3 ovarian,> 10 µM
same,TGI,CAKI-1 renal,> 10 µM
same,TGI,HCC-2998 colon,> 10 µM
same,TGI,HCT-15 colon,> 10 µM
same,TGI,HS 578T breast,> 10 µM
same,TGI,COLO 205 colon,> 10 µM
same,TGI,OVCAR-8 ovarian,> 10 µM
same,TGI,MOLT-4 leukemia,> 10 µM
same,TGI,HL-60(TB) leukemia,> 10 µM
same,TGI,KM12 colon,> 10 µM
same,TGI,UACC-257 melanoma,> 10 µM
same,TGI,UACC-62 melanoma,> 10 µM
same,TGI,SNB-75 CNS,> 10 µM
same,TGI,OVCAR-4 ovarian,> 10 µM
same,TGI,ACHN renal,> 10 µM
same,TGI,NCI-H460 lung,> 10 µM
same,TGI,NCI/ADR-RES ovarian,> 10 µM
same,TGI,HCT-116 colon,> 10 µM
same,TGI,MALME-3M melanoma,> 10 µM
same,TGI,K-562 leukemia,> 10 µM
same,TGI,RXF 393 renal,> 10 µM
same,TGI,A498 renal,> 10 µM
COC(=O)c1cn(CC(O)CCl)nn1 (configuration not stated),TGI,NCI-H522 lung,> 100 µM
same,TGI,SN12C renal,> 100 µM
same,TGI,SF-268 CNS,> 100 µM
same,TGI,OVCAR-5 ovarian,> 100 µM
same,TGI,TK-10 renal,> 100 µM
same,TGI,DU-145 prostate,> 100 µM
same,TGI,T-47D breast,> 100 µM
same,TGI,NCI-H23 lung,> 100 µM
same,TGI,HOP-62 NSCLC,> 100 µM
same,TGI,MDA-MB-231 breast,> 100 µM
same,TGI,U251 CNS,> 100 µM
same,TGI,SK-MEL-28 melanoma,> 100 µM
same,TGI,HT29 colon,> 100 µM
same,TGI,RPMI-8226 leukemia,> 100 µM
same,TGI,CCRF-CEM leukemia,> 100 µM
same,TGI,LOX IMVI melanoma,> 100 µM
same,TGI,SNB-19 CNS,> 100 µM
same,TGI,PC-3 prostate,> 100 µM
same,TGI,SF-539 CNS,> 100 µM
same,TGI,UO-31 renal,> 100 µM
same,TGI,MDA-MB-435,> 100 µM
same,TGI,SW-620 colon,> 100 µM
same,TGI,M14 melanoma,> 100 µM
same,TGI,SK-MEL-2 melanoma,> 100 µM
same,TGI,A549 NSCLC,> 100 µM
same,TGI,MCF7 breast,> 100 µM
same,TGI,IGROV1 ovarian,> 100 µM
same,TGI,EKVX NSCLC,> 100 µM
same,TGI,SK-MEL-5 melanoma,> 100 µM
same,TGI,OVCAR-3 ovarian,> 100 µM
same,TGI,MDA-N,> 100 µM
same,TGI,BT-549 breast,> 100 µM
same,TGI,CAKI-1 renal,> 100 µM
same,TGI,HCC-2998 colon,> 100 µM
same,TGI,HCT-15 colon,> 100 µM
same,TGI,HS 578T breast,> 100 µM
same,TGI,COLO 205 colon,> 100 µM
same,TGI,HOP-92 NSCLC,> 100 µM
same,TGI,OVCAR-8 ovarian,> 100 µM
same,TGI,MOLT-4 leukemia,> 100 µM
same,TGI,KM12 colon,> 100 µM
same,TGI,UACC-257 melanoma,> 100 µM
same,TGI,SNB-75 CNS,> 100 µM
same,TGI,OVCAR-4 ovarian,> 100 µM
same,TGI,ACHN renal,> 100 µM
same,TGI,NCI-H460 lung,> 100 µM
same,TGI,NCI/ADR-RES ovarian,> 100 µM
same,TGI,MALME-3M melanoma,> 100 µM
same,TGI,K-562 leukemia,> 100 µM
same,TGI,RXF 393 renal,> 100 µM
same,TGI,A498 renal,> 100 µM
